# Patent US10813931B2, “Methods and compositions relating to the treatment of cancer” (THE BRIGHAM AND WOMEN'S HOSPITAL, INC., priority 2013, dated 2020)
# Columns and labels:
# 231 parent and DTC = experiment: Cell viability (MTS) and drug sensitivity index, 231 parent vs DTC vs 231Phenocopy; assay type: cell-based, human; details: for cell viability of DTC, SFK and BCR-Abl inhibition separately and in combination: 231 DTC, PP2 and imatinib in combination
# Experimental: (§1) Following viability analyses conducted as described in supplemental data, drug sensitivity index (SI) was determined as follows: Cell viability was determined as % of control for treatment conditions of 10 nM, 100 nM 1000 nM and 10 μM to generate an average cell viability across these 4 drug concentrations. SI was calculated as a ratio of parent:DTC or parent:parent^phenocopy. SI=1 correlates to parental sensitivity, SI<1 correlates to resistance compared to parent cell line and SI>1 correlates to enhanced sensitivity to the indicated drug compared to the parent cell line at the same concentration average.
# as §1, with “Cells were exposed to indicated treatments ([…]) for 48 hours in serum containing medium. Following” for “Following”, “incubation, cells were washed 1 time with PBS and recovered” for “viability analyses conducted as described”, “serum and phenol red-free RPMI or DMEM and subsequently treated with MTS following manufacturer protocol (Promega, Madison, Wis.). Drug” for “supplemental data, drug”
# 231 DTC and 468DTC = experiment: Cell viability of DTC subsets with dasatinib, PI103, combination or DPNP; assay type: cell-based, human; details: combination of PI103 and dasatinib (1:1), 48 h
# Experimental: (§2) Parent cells DTC or Parent^Phenocopy were generated as described and plated at a concentration of 1.5×10^5 in a clear bottom 96-well plate. Cells were exposed to indicated treatments ([…]) for 48 hours in serum containing medium. Following incubation, cells were washed 1 time with PBS and recovered in serum and phenol red-free RPMI or DMEM and subsequently treated with MTS following manufacturer protocol (Promega, Madison, Wis.). Drug sensitivity index (SI) was determined as follows: Cell viability was determined as % of control for treatment conditions of 10 nM, 100 nM 1000 nM and 10 μM to generate an average cell viability across these 4 drug concentrations. SI was calculated as a ratio of parent:DTC or parent:parent^phenocopy. SI=1 correlates to parental sensitivity, SI<1 correlates to resistance compared to parent cell line and SI>1 correlates to enhanced sensitivity to the indicated drug compared to the parent cell line at the same concentration average.
# [1] = tested on: explant from stage IV, metastatic breast cancer patient; experiment: Refractory stage IV metastatic breast cancer explant, caspase activation; parameters: species or system human; details: combination of dasatinib with DTX, 48 h
# Experimental: Fresh tumor tissues were collected from breast cancer patients immediately after surgical resection at HCG cancer hospital, Bangalore, India. The tumor samples were transported to the laboratory at 4° C., in appropriate transport buffer within 60 minutes post-resection, for ex-vivo studies and molecular and pathological evaluation. Tissues were cut into thin sections and cultured in 96 well plate using optimized conditions (Radhakrishnan et al., 2013). Tumors were treated with a taxane-containing regimen (Docetaxel+Doxorubicin+Cyclophosphamide) or other drugs as indicated. DMSO was used as a vehicle control. After 48 hrs of treatment, tumor cell viability was measured and release of soluble cleaved caspase-3 and caspase-8 were determined.
# Human Tumor tissues were fixed in Phos stop (Roche) containing 4% buffered formalin and embedded in paraffin. Prior to immunohistochemical staining of target proteins 4-μm-thick tissue sections mounted in poly L lysine coated glass slides were deparaffinized and rehydrated. Heat induced antigen retrieval was achieved using citrate buffer (pH7.8). […] Immunoreactivity was scored by intensity of staining (0, no staining, 1 weak; 2 moderate; 3 strong) and percentage of positive cells. By multiplying both values, a final score was calculated. […]
# AKT signaling = experiment: Western blot of phosphorylated and total Akt in 231 DTC; assay type: cell-based, human; details: increasing doses, 4 h
# Experimental: Laemli sample buffer was prepared as a 5× solution containing β-mercaptoethanol as a reducing agent. Immunoprecipitaion was performed using both classic and direct IP kits purchased from Pierce following manufacturer protocols (Thermo Fisher inc. Rockford, Ill.). Briefly, cell lysates were prepared using IP/Lysis Buffer (Thermo Fisher inc. Rockford, Ill.) in the presence of 2×HALT protease/phosphatase inhibitor cocktail (Thermo Fisher inc. Rockford, Ill.). For classic Immunoprecipitation, lysates were combined with indicated antibodies for 48 hours at 4 C and combined with protein A/G agarose beads for 4 hours prior to elution with 2× Laemli Buffer at 100 C. Direct immunoprecipitation was performed following manufacturer protocol. Briefly, antibodies were covalently attached to agarose beads, lysate was combined with antibody-agarose bead conjugates for 24 hours prior to washes and elution with provided Elution Buffer. Protein samples were resolved by SDS-PAGE and transferred to PVDF membranes prior to incubation at 4 C with indicated primary antibodies. […] Optical densities of western blots were measured using ImageJ™ open source software (National Institutes of Health) and validated using Adobe CS5™.
# [2] = tested on: 4T-1 mouse mammary carcinoma; experiment: 4T-1 tumor growth in Balb/C mice; assay type: in vivo
# Experimental: 4-6 week old Balb/C mice (Charles River, Cambridge Mass.) were inoculated with 10^6 4 T-1 mouse mammary carcinoma cells in the left flank (Charles River, Cambridge Mass.). Mice identified with tumors were treated with docetaxel (DTX) or vehicle twice at 72 hour intervals at 10 mg/kg i.v. or 15 mg/kg i.p. and subsequently treated with dasatinib i.p. or nanoparticles i.v. 72 hours following the final DTX dose. Tumors were harvested at indicated time points and evaluated for protein phosphorylation and expression. Experimental detail provided in supplemental data.
# 1 million 4T-1 mouse mammary carcinoma cells suspended in 100 µL PBS were injected per left flank of 5-6 week old Balb/C (Charles River, Wilmington Mass.). DTX was dissolved in pure Ethanol at a concentration of 50 mg/ml mixed 1:1 with Polysorbate 80 (Tween 80) and brought to a final working concentration with 5% glucose in PBS. Once Tumors became palpable (˜100 mm^3), DTX or vehicle treatments were administered at 100 μL volumes. Dasatinib was dissolved in DMSO to working concentration and delivered as 50 μL injections on indicated days, 50 µL DMSO used as a control in these studies. Tumor volumes were measured by a third party unaware of treatment conditions using digital calipers (Starlett, Athol, Mass.), volumes were assessed by the following formula: (Width×Width×length)/2 and expressed as relative volume increase from day 1. Tumor homogenate was prepared by homogenization of equal weight tissue sections incubated in 3×RIPA buffer containing 2× protease/phosphatase inhibitor cocktail (Thermo Fisher, Waltham, Mass.).
# TNBC = details: 2011, cited from earlier work
# [3] = tested on: DTC subsets derived from multiple cancer types; experiment: Drug sensitivity index of dasatinib in DTC isolated from multiple cell lines; assay type: cell-based; details: DTC from multiple cell lines vs parent, 48 h
# Experimental: as §1
# as §2, with “SI=1 correlates to parental sensitivity, SI<1 correlates to resistance compared to parent cell line and SI>1 correlates to enhanced sensitivity to the indicated drug compared to the parent cell line at the same concentration average.” left out
# AKT and ezrin signaling = experiment: Western blot of AKT, ezrin and ERM signaling in 468 cells treated with DTX +/- erlotinib; assay type: cell-based, human; details: 10 nM DTX +/- erlotinib, 24 h
# Experimental: MDA-MB-231 (ATCC) were cultured in DMEM containing 10% Fetal Bovine Serum (FBS), MDA-MB-468 MDA-MB-435 and 4T-1 mammary carcinoma cells (ATCC) were cultured in RPMI containing 10% FBS (Invitrogen, Carlsbad Calif.) at 37 C and 5% CO2. During treatments with chemotherapeutics, cells were grown to semi-confluence and treated with indicated concentrations of chemotherapy in serum-containing medium for indicated time points. When small molecule inhibitors were included in treatments, they were added simultaneously with chemotherapy. For siRNA gene knockdown, cells were plated at a concentration of 5×10^4 cells/ml. Pre-validated Silencer Select siRNA targeting pan-CD44 (5′[…]tt3′) (SEQ ID NO: 38) or Ezrin (5′[…]tt3′) (SEQ ID NO: 39) were purchased from Ambion (Invitrogen, Grand Island, N.Y.). siRNA plasmids were transfected using lipofectamine 2000 (Invitrogen, Carlsbad Calif.) following manufacturer protocol and cultured for 72 hours prior to treatment. Scrambled siRNA was used as a control.
# Laemli sample buffer was prepared as a 5× solution containing β-mercaptoethanol as a reducing agent. […] Optical densities of western blots were measured using ImageJ™ open source software (National Institutes of Health) and validated using Adobe CS5™.
# MDA-MB-231 (231) = experiment: CD44 surface expression by FACS in 231 cells; assay type: cell-based, human; details: 231 cells surviving 500 nM doxorubicin
# Experimental: (§3) MDA-MB-231, MDA-MB-468 were purchased from ATCC. For acute treatments, cells were plated at a density of 0.5-1×10^5 cells/ml and allowed to adhere for 24-48 hr. when cells reached ˜70% confluency they were treated with antitubulins at indicated concentrations for 4-24 hours and utilized for subsequent assays. To generate chemotherapy tolerant subset, cells were treated with indicated concentrations of chemotherapy (48). Following washes with PBS, adherent cells were trypsinized and re-plated at a density of 1.5-2×10^5 cells/ml and cultured in serum-containing medium. […]
# Cells were cultured as indicated and fixed with 4% paraformaldehyde in PBS for 30 min at RT and blocked in 10% goat serum (v/v). Following PBS washes, cells were incubated with indicated antibodies for 60 minutes at room temperature or overnight at 4 C and analyzed by FACS (Accuri cyomteters Inc. Ann Arbor, Mich.). Cell cycle analyzed in propidium iodide solution following incubation in 70% Ethanol overnight at 4 C and following manufacturer protocol (Genscript USA Inc. Piscataway, N.J.). AnnexinV/PI was analyzed FACS following manufacturer protocol (BD, Ann Arbor Mich.). All FACS results were analyzed by FlowJo™ software following a rigorous doublet discrimination based on FSC:A vs. width as well as FSC:A vs. height (Tree Star Inc., Ashland Oreg.). […]
# [4] = tested on: 468 parent cells and a subset of DTC; experiment: Survival curves of 468 parent cells and DTC exposed to chemotherapy; assay type: cell-based, human; details: 48 h exposure
# Experimental: as §3, with “medium. After 24 hours incubation, floating cells were removed and remaining cells were washed with 1×PBS and considered a subpopulation of chemotherapy-tolerant cells. A separate plate of control cells were maintained concurrently in serum containing medium and provided fresh media at every interval where DTC received fresh media.” for “medium.”
# Parent cells DTC or Parent^Phenocopy were generated as described and plated at a concentration of 1.5×10^5 in a clear bottom 96-well plate. […] Drug sensitivity index (SI) was determined as follows: Cell viability was determined as % of control for treatment conditions of 10 nM, 100 nM 1000 nM and 10 μM to generate an average cell viability across these 4 drug concentrations. SI was calculated as a ratio of parent:DTC or parent:parent^phenocopy. […]
structure (smiles),measurement,setting,value
CC(C)(C)n1nc(-c2ccc(Cl)cc2)c2c(N)ncnc21 [PP2],"cell viability of DTC, SFK and BCR-Abl inhibition separately and in combination",231 parent and DTC,dual inhibition does not further augment the sensitivity of the DTC population
Cc1nc(Nc2ncc(C(=O)Nc3c(C)cccc3Cl)s2)cc(N2CCN(CCO)CC2)n1 [dasatinib],sensitivity (SI) of 231Phenocopy,231 parent and DTC; 231Phenocopy vs 231 parent,regained parental sensitivity
same,Sensitivity index (SI),"231 parent and DTC; DTC vs parental cell line, 48 h, average viability across 10 nM, 100 nM, 1000 nM and 10 μM",> 1
same,"cell death in the DTC subset, combination",231 DTC and 468DTC,synergistic induction of cell death
same,"apoptosis, cleaved caspase 3 (IHC)",[1],could re-sensitize the refractory cancer tissue to chemotherapy
same,caspase 8 levels,[1],no change
same,"AKT signaling (phosphorylated Akt, western blot)",AKT signaling,"reduced, to a minor degree, AKT signaling"
same,tumor growth rate (specific growth rate),"[2]; 'Early Dasatinib', given 72 hours following DTX",significantly augmented the reversal of tumor growth rate
same,tumor growth rate (specific growth rate),"[2]; 'Late Dasatinib', 216 hours following DTX",ineffective
same,relative tumor volume,[2]; early treatment group after DTX,tumor regression could be achieved
same,relative tumor volume,[2]; late treatment after DTX vs matched vehicle control,no difference over a matched vehicle control
same,clinical efficacy as single-agent in TNBC,TNBC; Finn et al.,failed as a single-agent
same,toxicity in clinical trials,TNBC; Herold et al.,significant toxic burden
same,dasatinib sensitivity-index in additional DTC subsets,[3],consistent in additional DTC subsets derived from multiple cancer types
Cc1ccc(NC(=O)c2ccc(CN3CCN(C)CC3)cc2)cc1Nc1nccc(-c2cccnc2)n1 [imatinib],"cell viability of DTC, SFK and BCR-Abl inhibition separately and in combination",231 parent and DTC,dual inhibition does not further augment the sensitivity of the DTC population
C#Cc1cccc(Nc2ncnc3cc(OCCOC)c(OCCOC)cc23)c1 [erlotinib],ERM-complex signaling,AKT and ezrin signaling,remained intact
same,induction of AKT and ezrin signaling in response to chemotherapy,AKT and ezrin signaling,prevented induction of AKT and ezrin signaling
COc1cccc2c1C(=O)c1c(O)c3c(c(O)c1C2=O)C[C@@](O)(C(=O)CO)C[C@@H]3O[C@H]1C[C@H](N)[C@H](O)[C@H](C)O1 [doxorubicin],CD44 expression of doxorubicin tolerant cells (Dox-TC),MDA-MB-231 (231),robust expression of CD44
same,susceptibility of DTC to chemotherapy vs parent cell,[4],acquired resistance
Oc1cccc(-c2nc(N3CCOCC3)c3oc4ncccc4c3n2)c1 [PI103],"cell death in the DTC subset, combination",231 DTC and 468DTC,synergistic induction of cell death
CO[C@H]1C(=O)[C@]2(C)[C@@H](OC)C[C@H]3OC[C@@]3(OC(C)=O)[C@H]2[C@H](OC(=O)c2ccccc2)[C@]2(O)C[C@H](OC(=O)[C@H](O)[C@@H](NC(=O)OC(C)(C)C)c3ccccc3)C(C)=C1C2(C)C [cabazitaxel],susceptibility of DTC to chemotherapy vs parent cell,[4],insensitive
